US20200108069A1, “Treatment of Fibrotic Conditions” (ANGLIA RUSKIN UNIVERSITY HIGHER EDUCATION CORPORATION, priority 2018, published 2020)
Where two headings read alike, the source gives them in different places.

What was measured:
[1] = system: fibroblasts isolated from human tunica albuginea (TA); TGF-β1-induced myofibroblast transformation; assay: In Cell ELISA (ICE) phenotypic screening assay of TGF-β1-induced myofibroblast transformation (α-SMA/DNA staining); format: cell-based; conditions: for IC50: co-incubation with 10 ng/ml TGF-β1 for 72 hours, α-SMA/DNA staining ratio, read-out: IC50, inhibition of TGF-β1-induced myofibroblasts transformation
Description: Tunica albuginea tissue samples were collected from patients undergoing surgery at University College London Hospital (UCLH), London, UK for penile cancer or PD. All patients gave fully informed written consent to the study. The study was approved by independent research ethics committees (NRES Committee East of England 12/EE/0170 and NRES Committee North of Scotland 15/NS/0051). PD plaque tissue was obtained from patients with chronic PD undergoing a Lue procedure (plaque incision and grafting). Plaque tissue would have otherwise been discarded. Non-plaque TA was obtained from PD patients undergoing a Nesbit procedure whereby non-fibrotic TA tissue was excised from the opposite side of the plaque. TA tissue samples from patients with penile cancer were taken from the proximal side away from the tumour, with the tumour showing negative margins on histological examination.
Tissue samples were carefully dissected to ensure that all cavernosal tissue was removed from the tunica albuginea (TA). To establish fibroblast cultures, TA fragments were seeded in 6-well tissue culture plates (Nunc, Fisher Scientific, UK) as described previously16. The tissue pieces were incubated in DMEM-F12 (GIBCO, Invitrogen, UK) containing 10% FCS (Fisher Scientific, UK) and 1% penicillin-streptomycin (GIBCO, Invitrogen, UK) at 37° C., 5% CO2 for 5-7 days. Tissue fragments were carefully removed using forceps upon outgrowth of cells. Passages 2 to 4 were used for the rest of the experiments.
Cells were seeded onto 96 well optical flat bottom black microplates (Nunc, Fisher Scientific, UK) at 5×10^3 cells per well. After overnight attachment they were incubated with or without 10 ng/ml TGF-β1 for 72 hours. The cells were then fixed using 4% paraformaldehyde, and blocked with 10% donkey serum and 0.1% Triton X-100 in PBS. The cells were then incubated with anti-α-SMA antibody (1:3,000; Sigma Aldrich, UK) for 2 h. Afterwards cells were incubated with donkey anti-mouse secondary antibody conjugated to an infrared dye which emits at 800 nm (1:500; IRdye 800CW; Li-Cor, UK) and a nuclear counterstain at that emits at 700 nm (1:1,000; DRAQS, Biostatus, UK) for 1 h. The plate was scanned using an infrared imaging system (Odyssey CLx imager, LI-COR, UK) at both the 700 nm and 800 nm wavelengths.
We have isolated primary fibroblasts from the plaque and non-plaque TA of patients with PD. We also isolated primary fibroblasts from TA of patients with penile cancer as non-fibrotic controls.

[2] = system: TGF-β1-induced myofibroblast collagen contraction, TA-derived fibroblasts; assay: Collagen gel contraction assay (fibroblast populated collagen lattices); format: cell-based, human; conditions: 10 ng/ml TGF-β1; lattices released after 72 h, contraction observed for 8 h
Procedure: Images were analysed using ImageJ software by measuring the surface area of the contracting lattice. Contraction was calculated as percentage of the surface of the unreleased lattice. Data is shown as percentage of maximum contraction of vehicle control. The two classes of drugs were then tested in functional assays. Firstly, we tested their efficacy in inhibiting collagen gel contraction as a measure of myofibroblast contractility; a characteristic function of myofibroblasts, which separates them from fibroblasts. […] Secondly, we tested the drugs' efficacy in inhibiting ECM protein production, which is again one of the critical characteristic functions of myofibroblasts. […] FIG. 4).

[3] = system: TGF-β1 injection into the rat TA (animal model for PD); assay: Animal model for PD: assessment of erectile function (intracavernous pressure, ICP); format: in vivo, Male Sprague-Dawley rats; conditions: tamoxifen 5 mg/kg/day i.p., vardenafil 1.5 mg/kg/day drinking water, 5 weeks
[4] = system: TGF-β1 injection into the rat TA (animal model for PD), penile fibrosis; assay: Animal model for PD: molecular and histological analysis of penile tissue (qPCR, Western blot, immunohistochemistry); format: in vivo, Male Sprague-Dawley rats
Description: The animal model for PD was first described by […] Lue^18 and modified by Bivalacqua and Hellstrom^19. Male Sprague-Dawley rats (10-12 weeks old) were housed in a regulated environment with a 12-hour light/dark cycle in a standard experimental laboratory. The animals had free access to food and water ad libitum. Fifty male Sprague-Dawley rats were divided into 5 groups: A: sham (injection of vehicle citrate buffer), B: […] Treatment was initiated at the day after injury and continued for 5 weeks followed by a 48 hours wash-out period. The High-Capacity cDNA Reverse Transcription Kit (Applied Biosystems) was used according to the manufacturer's instructions to transcribe RNA to cDNA. One μg in 10 μl were added to 10 μl of the master mix for reverse transcription for a total reaction volume of 20 μl. After reverse transcription the cDNA was diluted 1:10 for qPCR. The Applied BiosystemsTM TaqManTM Fast Advanced Master Mix was used for qPCR. Gene specific primer pairs for GAPDH, beta-actin, alpha smooth muscle actin, elastin, and collagens I, III, and V were purchased from Applied Biosystems. […] Data was analysed using the 2-ΔΔCt method for relative quantifications. […] Statistical significance, unless otherwise stated, was calculated using one or two-way ANOVA and Student's t-test for unpaired means (two-sided). […]

[5] = system: TGF-β1-induced myofibroblast ECM protein production, cells derived from TA tissue; assay: ECM production assay; format: cell-based; conditions: Homo sapiens, 168 h, 10 ng/ml TGF-β1 for 7 days
Procedure: Cells were seeded onto 96 well optical flat bottom black microplates (Nunc, Fisher Scientific, UK) at 5×10^3 cells per well. After overnight attachment, they were stimulated with or without 10 ng/ml TGF-β1 and/or compounds for 7 days. DRAQS in PBS (1:1,000) was added and cells were incubated for 5 min at 37° C., 5% CO2 before scanning the plate to obtain nuclear staining. […] Afterwards ECM was stained either with Coomassie Blue (total ECM) overnight at 4° C. or with primary antibodies (collagen I, abcam; collagen III, Millipore; collagen V, abcam: fibronectin, Millipore) at 1:1000 for 1 h on a shaker, followed by incubation with secondary antibody and scanning the plate using an infrared imaging system (Odyssey CLx imager, LI-COR, UK) at both the 700 nm and 800 nm wavelengths. Results were normalized to the cell number before lysis.

[6] = Homo sapiens, Fibroblast, read-out: Percentage of inhibition of TGF-β1 induced myofibroblast transformation, Tamoxifen only, 10 ng/ml TGF-β1, 72 hours
[7] = Homo sapiens, Fibroblast, 10 ng/ml TGF-β1, 72 hours, read-out: Percentage of inhibition of TGF-β1 induced myofibroblast transformation, Vardenafil only

Cc1cccc(-c2[nH]c(C(C)(C)C)nc2-c2ccc3c(c2)OCO3)n1 [SB505124]
IC50 [1]: 0.6 µM

O=C(c1ccc(OCCN2CCCCC2)cc1)c1c(-c2ccc(O)cc2)sc2cc(O)ccc12 [raloxifene]
IC50 [1]: 7 µM

CCCc1nn(C)c2c(=O)[nH]c(-c3cc(S(=O)(=O)N4CCN(C)CC4)ccc3OCC)nc12 [sildenafil]
IC50 ([1]; Homo sapiens, Fibroblast): 15 µM

CN1CC(=O)N2[C@H](c3ccc4c(c3)OCO4)c3[nH]c4ccccc4c3C[C@@H]2C1=O [tadalafil]
IC50 ([1]; Homo sapiens, Fibroblast): 3.5 µM

CC/C(=C(\c1ccccc1)c1ccc(OCCN(C)C)cc1)c1ccccc1 [tamoxifen]
concentration at which TGF-β1-induced contraction of collagen was inhibited [2]: 1 µM | TGF-β1-induced decrease in erectile function (ICP) by 55% [3]: prevented | Percentage of inhibition of TGF-β1 induced myofibroblast transformation, Tamoxifen only ([1]; 100 μM, 10 ng/ml TGF-β1, 72 hours): cell death | inhibition at 0.3 µM [1, 6]: 10 ± 3% | inhibition at 1 µM [1, 6]: 10 ± 2% | inhibition at 3 µM [1, 6]: 10 ± 3% | inhibition at 10 µM [1, 6]: 25 ± 3% | TGF-β1-induced upregulation of collagen expression (collagens I, III, V mRNA) in penile tissue ([4]; 5 weeks treatment, qPCR): prevented | penile fibrosis in an animal model for PD ([4]; FIG. 5): ameliorate penile fibrosis

CCCc1nc(C)c2c(=O)[nH]c(-c3cc(S(=O)(=O)N4CCN(CC)CC4)ccc3OCC)nn12 [vardenafil]
concentration at which TGF-β1-induced contraction of collagen was inhibited [2]: 10 µM | IC50 ([5]; read-out: IC50, TGF-β1-induced ECM protein production: collagen I): 23 µM | IC50 ([5]; read-out: IC50, TGF-β1-induced ECM protein production: collagen III): 17 µM | IC50 ([5]; read-out: IC50, TGF-β1-induced ECM protein production: collagen V): 23 µM | IC50 ([5]; read-out: IC50, TGF-β1-induced ECM protein production: fibronectin): 44 µM | inhibition at 0.3 µM [1, 7]: 3 ± 3% | inhibition at 1 µM [1, 7]: 10 ± 1% | inhibition at 3 µM [1, 7]: 8 ± 2% | inhibition at 10 µM [1, 7]: 17 ± 2% | inhibition at 30 µM ([1]; Homo sapiens, Fibroblast, 30 μM, 10 ng/ml TGF-β1, 72 hours, read-out: Percentage of inhibition of TGF-β1 induced myofibroblast transformation, Vardenafil only): 25 ± 1% | inhibition at 100 µM ([1]; Homo sapiens, Fibroblast, 100 μM, 10 ng/ml TGF-β1, 72 hours, read-out: Percentage of inhibition of TGF-β1 induced myofibroblast transformation, Vardenafil only): 48 ± 1% | IC50 ([1]; Homo sapiens, Fibroblast): 30 µM
